Data as given in patent US20220177511A1, “SERIES OF HALOGENATED TETRACYCLIC TRITERPENE DERIVATIVES AND THEIR PREPARATION AND APPLICATION” (SHANGHAI KING-X BIOTECH CO., LTD, priority 2019, published 2022).
Entries after “also recorded” stand apart in the source; their conditions may differ.

How the values were obtained:
[1] = Metabolic stability in rat liver microsomes; assay type: in vitro ADME; settings: compared with compound 5 (cycloastragenol)
[2] = Metabolic stability in human liver microsomes; assay type: in vitro ADME
Description: Preparation of the test sample: Compound 1 (prepared in Example 5), 2 (prepared in Example 4), and 5 (cycloastragenol, purchased from Chengdu Jintaihe Company) were dissolved with an appropriate amount of DMSO to obtain a concentration of 10 mM solution.
1) The compound was diluted with DMSO to 0.5 mM, and diluted to 1/20 with PBS before the experiment.
2) Human liver microsomes and potassium phosphate buffer were added to the EP tube respectively and mixed by gentle shaking.
3) Pre-incubate the EP tube in a metal bath at 37° C. for 5 minutes. 4) Compound 1, 2 or 5 were added and incubated at 37° C.
5) Take 100 μl of sample from the tube at 0, 60, 120, 240, and 360 minutes respectively, and add the sample to the stop tube (containing 100 μl of cooled acetonitrile solution). The mixture was shaken vigorously to terminate the reaction and then placed it in a −30° C. refrigerator until analysis.
6) Centrifuge at 14300 r/min and 4° C. for 10 minutes, aspirate the supernatant and place it in a −30° C. refrigerator until analysis.
Column: Shim-pack XR-ODS II, 2.0×75 mm; mobile phase: mobile phase B: aqueous solution containing 0.2% formic acid; mobile phase A: acetonitrile solution; mobile phase ratio: […]

Metabolic half-life of human liver microsomes ([2]; 5 μM compound, 1 mg/mL microsomes, 37° C.): 3.893 h
Substance: (2aR,3R,4S,5aS,5bS,7S,7aR,9R,11aR,12aS)-9-halogen-3-((2R,5S)-5-(2-hydroxypropan-2-yl)-2-methyltetrahydrofuran-2-yl)-2a,5a,8,8-tetramethyltetradecahydro-1H,12H-cyclopenta[a]cyclopropa[e]phenanthrene-4,7-diol [Compound 1]
metabolic stability in rat liver microsomes [1]: relatively stable; also recorded: more stable than cycloastragenol
metabolic stability in human liver microsomes ([2]; compared with compound 5 (cycloastragenol)): relatively stable; also recorded: more stable than cycloastragenol
